Patent US10561736B1, “Apoptosis inhibitor formulations for prevention of hearing loss” (Spiral Therapeutics, Inc., priority 2019, dated 2020)
Entries after “also recorded” stand apart in the source; their conditions may differ. Read-outs that look alike come from different tables or passages of the source.

Columns and labels:
[1] = test system: CisPt-induced hearing loss; test: model of CisPt-induced hearing loss in rats; format: in vivo; settings: rat
Description: A model of CisPt-induced hearing loss in rats was evaluated to test the in vivo efficacy of LPT99. Ototoxicity was induced by intraperitoneal (IP) slow infusion of CisPt at doses that compared with those used in human preventions (eg, 10 mg/kg). LPT99 was administered IT 30 minutes before CisPt was given.
The protective effect of LPT99 was evaluated 3 days after CisPt administration by functional measures, such as auditory brainstem response (ABR) threshold shift, DPOAE, and expression of biomarkers of apoptosis in cochlea and cytocochleograms.

[2] = test system: Chinese hamster ovary (CHO) cell; test: in vitro CHO cell aberration assay; format: cell-based; settings: presence or absence of S9 metabolism
guinea pigs [3] = test: dermal sensitization range-finding pilot sub-study; format: in vivo, guinea pig; settings: topical 50 μl, 200, 400, or 797 μM
Description: A GLP-compliant dermal sensitization study was conducted with LPT99 in guinea pigs. The objective was to assess potential dermal sensitization of LPT99 using the Buehler test (Buehler, Arch Dermatol. 1965, 91, 171-7).
The test article, LPT99, was in a neutral-pH, buffered, isotonic solution containing a thermoreversible compound. The vehicle control was buffered at neutral pH and formulated as for the test article; it contained POLOXAMER® 407, disodium phosphate dodecahydrate hydrogen, sodium dihydrogen phosphate dihydrate, sodium chloride, and water for injection.
In the range-finding pilot substudy, 4 guinea pigs (2 males and 2 females; Charles River, Stone Ridge, N.Y.) were dosed.

[4] = cochlear distribution after IT administration (absorption); format: in vivo, rat; settings: LPT99 formulation in hydrogel, detection limit 2 ng/mL=3.2 nM
[5] = distribution in cochlea and plasma after a single IT administration; format: in vivo; settings: rat
Description: Distribution of LPT99 was investigated in cochlea and plasma after a single IT administration in rats. The inhibitor was administered at 50, 100, or 200 μM (dissolved in 5% hydroxypropyl cyclodextrin in physiological serum).

[6] = target: apoptosome complex composed by recombinant Apaf-1, Cytc, deoxyadenosine triphosphate (dATP), and caspase 9 (Homo sapiens, UniProt O14727); test: inhibition of apoptosome complex formation, recombinant proteins; format: biochemical; settings: mean ± SD, read-out: apoptosome inhibition (measured as inhibition of caspase 3 activation)
apoptosome complex composed by recombinant Apaf-1, Cytc, deoxyadenosine triphosphate (dATP), and caspase 9, sequence (O14727 whole entry, one chain of several): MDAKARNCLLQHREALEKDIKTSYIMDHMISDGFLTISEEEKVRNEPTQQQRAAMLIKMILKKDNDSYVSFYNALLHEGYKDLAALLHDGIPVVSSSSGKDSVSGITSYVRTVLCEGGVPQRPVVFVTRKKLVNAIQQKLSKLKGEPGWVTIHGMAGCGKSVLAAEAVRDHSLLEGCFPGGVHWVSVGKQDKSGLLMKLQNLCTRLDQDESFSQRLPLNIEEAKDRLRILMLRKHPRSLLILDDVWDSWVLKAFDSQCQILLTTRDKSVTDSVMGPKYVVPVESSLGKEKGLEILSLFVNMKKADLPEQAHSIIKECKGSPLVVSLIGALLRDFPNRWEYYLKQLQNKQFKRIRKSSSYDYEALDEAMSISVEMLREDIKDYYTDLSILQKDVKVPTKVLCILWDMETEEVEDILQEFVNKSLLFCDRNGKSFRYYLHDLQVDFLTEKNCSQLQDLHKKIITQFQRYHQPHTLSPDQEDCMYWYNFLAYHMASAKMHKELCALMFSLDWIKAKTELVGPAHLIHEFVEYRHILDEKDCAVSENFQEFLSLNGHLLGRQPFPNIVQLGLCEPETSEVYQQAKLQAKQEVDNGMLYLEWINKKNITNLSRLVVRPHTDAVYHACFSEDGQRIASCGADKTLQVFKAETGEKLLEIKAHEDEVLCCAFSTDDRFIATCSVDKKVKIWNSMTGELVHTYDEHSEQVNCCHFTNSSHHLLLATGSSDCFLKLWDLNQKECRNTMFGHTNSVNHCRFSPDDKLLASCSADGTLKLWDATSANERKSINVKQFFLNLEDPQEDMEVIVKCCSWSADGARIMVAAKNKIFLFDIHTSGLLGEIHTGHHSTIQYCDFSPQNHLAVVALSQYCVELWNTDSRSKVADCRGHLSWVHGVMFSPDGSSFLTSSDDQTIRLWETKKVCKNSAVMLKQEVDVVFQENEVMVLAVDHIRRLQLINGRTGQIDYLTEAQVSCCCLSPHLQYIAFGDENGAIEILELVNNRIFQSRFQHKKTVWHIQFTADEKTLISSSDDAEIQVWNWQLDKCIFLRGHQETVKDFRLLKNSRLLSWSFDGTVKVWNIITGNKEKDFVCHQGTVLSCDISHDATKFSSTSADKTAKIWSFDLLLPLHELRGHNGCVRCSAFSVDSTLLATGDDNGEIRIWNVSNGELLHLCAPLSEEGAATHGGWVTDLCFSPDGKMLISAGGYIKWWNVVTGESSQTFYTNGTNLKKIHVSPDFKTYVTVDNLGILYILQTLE
Description: The specificity of LPT99 was tested in vitro on Apaf-1, caspase 3, and caspase 9 (proteins from the apoptotic cascade), and a broad panel of potential pharmacological targets.
LPT99 inhibited the formation of the apoptosome complex composed by recombinant Apaf-1, Cytc, deoxyadenosine triphosphate (dATP), and caspase 9. This activity was measured as inhibition of caspase 3 activation. […] To evaluate the specificity of the inhibition, an assay of caspase 3 and 9 activation was set up with recombinant proteins. The inhibitions of caspase 3 and 9 were 7.6±14.7 and 5.3±3.5, respectively, for LPT99.

[7] = test system: ion channels, including hERG potassium channels; test: effects on ion channels in CHO and HEK 293 cells; format: cell-based
Description: Torsadogenic refers to the development of torsade de Pointes (TdP) arrythimias.

guinea pigs [8] = test: dermal sensitization main study (Buehler test); format: in vivo, guinea pig; settings: topical 797 μM
Description: A GLP-compliant dermal sensitization study was conducted with LPT99 in guinea pigs.
The test article, LPT99, was in a neutral-pH, buffered, isotonic solution containing a thermoreversible compound.
The main study consisted of 2 groups of 20 or 10 guinea pigs. […] Group 2 was 5 male and 5 female animals that were not dosed with LPT99 (Group 2) during the induction phase and served as naïve controls; Group 2 was challenged with LPT99 on Day 28. LPT99 was topically administered to the skin in the shaved scapula area in a volume of 50 μL on Study Days 0, 7, and 14 (induction doses), and on Day 28 (challenge dose). These observations and measurements were performed: Clinical observations (daily), Body weights (weekly), Draize scoring (24 and 48 hours after bandage removal on Days 29 and 30), Primary Dermal Irritation Index (PDII) scoring of extent of irritation according to the scale in. The PDII (post-challenge) was calculated for the test article or vehicle by dividing the sum of the Total Irritation Score by the number of observations (e.g., 3 days×6 animals=18 (number of observations).

Sprague-Dawley rats = test: GLP acute systemic toxicity study with toxicokinetics, single IP dose; format: in vivo; settings: rat; for dose proportionality of Cmax and AUClast: IP 100 to 750 mg/kg/day
Description: (§1) A GLP acute systemic toxicity study was conducted with LPT99 administered via IP injection in Sprague-Dawley rats. The acute systemic toxicity study was preceded by a non-GLP maximum tolerated dose (MTD) toxicity study, via the same administration and test system, which determined the MTD of LTP99 to be 1000 mg/kg.
(§2) LPT99 was suspended in vehicle [0.5% w/v methylcellulose and 0.1% v/v TWEEN® 80 in Milli-Q water] and administered intraperitoneally to Sprague-Dawley rats as a single dose at the doses of 100 (low—G2/G2TK), 300 (mid—G3/G3TK), and 750 (high—G4/G4TK) mg/kg body weight. The rats in vehicle control groups (G1/G1TK) received the vehicle alone. The dose volume administered was at an equivolume of 10 mL/kg body weight for all groups.
(§3) The main toxicity groups consist of 15 rats/sex/group in G1 and G4 groups and 10 rats/sex/group in G2 and G3 groups. The toxicokinetic groups consisted of 6 males and 6 female rats each for the prevention groups, whereas the vehicle control group had 3 male and 3 female rats.

[9] = as above; format: in vivo; settings: Sprague-Dawley, plasma, rat
Description: as §1, §2, §3

HEI-OC1 cells = settings: cellular model of CisPt-induced apoptosis; IEB Symposium abstracts 2016; cited from earlier work

COc1ccc2[nH]cc(CCNC(=O)CC3C(=O)N(CCc4ccc(Cl)cc4Cl)CC(=O)N3CCc3cccs3)c2c1 (stereo not drawn) [LPT99, 2-(4-(2,4-dichlorophenethyl)-3,6-dioxo-1-(2-(thiophen-2-yl)ethyl)piperazin-2-yl)-N-(2-(5-methoxy-1H-indol-3-yl)ethyl)acetamide]
ABR threshold shift induced by CisPt ([1]; IT LPT99-CD, 3 days after administration, especially 20, 28, or 40 kHz): attenuated the ABR threshold shift | auditory threshold shifts vs CisPt control group ([1]; IT LPT99 in hydrogel plus CisPt): significantly lower auditory threshold shifts | protection against CisPt-induced hearing loss ([1]; IT LPT99 solution (hydrogel), 63 μg/mL [100 μM] and 300 μg/mL [478 μM]): protected against CisPt-induced hearing loss; also recorded: protective effects against CisPt-induced hearing loss | structural aberrations in cultured mammalian cells [2]: did not induce structural aberrations | Draize scores (erythema and edema) (guinea pigs [3]): 0 | LPT99 in plasma after IT administration [4]: no LPT99 has been found in plasma; also recorded: not detected systemically | LPT99 in plasma after IT administration ([4]; listed as LTP99): not detectable in plasma | detection of LPT99 in administered cochleae ([5]; single IT 50, 100, or 200 μM in 5% hydroxypropyl cyclodextrin, 0.5 and 1 hour): detected in all administered cochleae | LPT99 concentrations in contralateral cochleae and plasma ([5]; single IT, all time points): BLLQ | inhibition at 10 µM [6]: 78.9% | torsadogenic / cardiotoxic risk [7]: low torsadogenic risk; also recorded: low cardiotoxic risk | Irritant Category (guinea pigs [8]): nonirritant (0) | mortality, clinical observations, body weights, or Draize scores (guinea pigs [8]): No test-article-related changes | Draize scores after the challenge dose (guinea pigs [8]; 24 or 48 hours): No Draize scores were >0 | PDII score (guinea pigs [8]; post-challenge): 0 | body weights or body weight gains (Sprague-Dawley rats; IP 750 mg/kg, first 7 days, both sex): not statistically significantly lower | food consumption (Sprague-Dawley rats; IP 750 mg/kg, males days 1-7, females days 1-4, vs control): statistically significant reduction | epididymides weight (Sprague-Dawley rats; IP 750 mg/kg, males, Day 2): increase in epididymides weight | neutrophil count (Sprague-Dawley rats; IP 750 mg/kg, males, Day 15): minimal increase in neutrophil count | dose proportionality of Cmax and AUClast (Sprague-Dawley rats; female): approximate dose proportional increase | dose proportionality of Cmax and AUClast (Sprague-Dawley rats; male): More than dose proportional increase | liver weight (Sprague-Dawley rats; IP 300 and 750 mg/kg, males and females, Day 2): increase in liver weight | inflammatory response, localisation (Sprague-Dawley rats; IP, Day 2 and Day 15, parenchyma not affected): restricted to the mesentery and surface of the visceral organs in abdominal cavity | coagulation parameters (Sprague-Dawley rats; IP, Days 2 and 15): not affected | urinalysis parameters (Sprague-Dawley rats; IP, Days 2 and 15): unaffected | neutrophil count (Sprague-Dawley rats; IP, all dose groups, Day 2): increased neutrophil count | mediastinal lymph node, microscopic finding (Sprague-Dawley rats; IP, all test item injected groups, Day 2): necrosis/inflammation of lymph node | exposure in females relative to males (Sprague-Dawley rats; IP, all tested dose levels): 1.5-5.5 fold | clinical chemistry parameters (Sprague-Dawley rats; IP, males): no test item related changes | general tolerability (Sprague-Dawley rats; single IP 100, 300, 750 mg/kg): generally safe and well tolerated | mortality (Sprague-Dawley rats; single IP 100, 300, 750 mg/kg): No mortality was observed | clinical signs (Sprague-Dawley rats; single IP, all tested dose groups): no clinical signs observed | Tmax ([9]; IP 100 mg/kg/day, female, read-out: Tmax): 8 h | Tmax ([9]; IP 100 mg/kg/day, male, read-out: Tmax): 2 h | Tmax ([9]; both sexes, IP, dose levels other than 100 mg/kg/day, both genders, read-out: time to reach peak plasma concentrations (Tmax)): 24 h | release of Cytc from mitochondria (HEI-OC1 cells): decreased release of Cytc from mitochondria
